Reference: PubChem BioAssay AID1963968 (Molecular Pharmacology Branch, DTP, NCI, 2024)

Tested on: 945468-187-T-J3-PDC spheroids with HUVEC/MSC, viability
Assay: Anticancer human tumor 945468-187-T-J3-PDC patient-derived rectal carcinoma cell line growth inhibition [PI3K]
Conditions: for IC50: curve of first compound; for viability, T/C: stronger effect = lower value
Summary of the method: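 Combination activity was assessed by viability in multicellular tumor spheroids carrying HUVEC and MSC components. Agents were tested with PI3K inhibitors from a Cmax-based top dose (or 10 microM) downward in half-log increments.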

[1] = second compound 0.0316 µM, first compound 0.0316 µM
[2] = second compound 0.0316 µM, first compound 0.1 µM
[3] = second compound 0.1 µM, first compound 0.0316 µM
[4] = second compound 0.1 µM, first compound 0.1 µM
[5] = second compound 0.316 µM, first compound 0.0316 µM
[6] = second compound 0.316 µM, first compound 0.1 µM
[7] = second compound 1 µM, first compound 0.0316 µM
[8] = second compound 1 µM, first compound 0.1 µM
[9] = second compound 0.0316 µM, first compound 0.316 µM
[10] = second compound 0.0316 µM, first compound 1 µM
[11] = second compound 0.0316 µM, first compound 3.16 µM
[12] = second compound 0.0316 µM, first compound 10 µM
[13] = second compound 0.1 µM, first compound 0.316 µM
[14] = second compound 0.1 µM, first compound 1 µM
[15] = second compound 0.1 µM, first compound 3.16 µM
[16] = second compound 0.1 µM, first compound 10 µM
[17] = second compound 0.316 µM, first compound 0.316 µM
[18] = second compound 0.316 µM, first compound 1 µM
[19] = second compound 0.316 µM, first compound 3.16 µM
[20] = second compound 0.316 µM, first compound 10 µM
[21] = second compound 1 µM, first compound 0.316 µM
[22] = second compound 1 µM, first compound 1 µM
[23] = second compound 1 µM, first compound 3.16 µM
[24] = second compound 1 µM, first compound 10 µM
[25] = second compound 3.16 µM, first compound 0.0316 µM
[26] = second compound 3.16 µM, first compound 0.1 µM
[27] = second compound 3.16 µM, first compound 0.316 µM
[28] = second compound 3.16 µM, first compound 1 µM
[29] = second compound 3.16 µM, first compound 3.16 µM
[30] = second compound 3.16 µM, first compound 10 µM
[31] = second compound 10 µM, first compound 0.0316 µM
[32] = second compound 10 µM, first compound 0.1 µM
[33] = second compound 10 µM, first compound 0.316 µM
[34] = second compound 10 µM, first compound 1 µM
[35] = second compound 10 µM, first compound 3.16 µM
[36] = second compound 10 µM, first compound 10 µM
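Also: spheroids exposed to agents for 7 days before viability read.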
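For viability, T/C in this document: 100% = DMSO vehicle control viability.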

CC(=O)c1c(C)c2cnc(Nc3ccc(N4CCNCC4)cn3)nc2n(C2CCCC2)c1=O + COc1c(OCCCN2CCOCC2)ccc2c3n(c(=NC(=O)c4cnc(N)nc4)nc12)CCN3
IC50 (second compound 0.00316 µM): > 0.1 µM | IC50 (second compound 0.01 µM): > 0.1 µM | IC50 (second compound 0.0316 µM): > 0.1 µM | IC50 (second compound 0.1 µM): < 0.000316 µM | IC50 (second compound 0.316 µM): < 0.000316 µM | IC50 (second compound 1 µM): < 0.000316 µM | viability, T/C (second compound 0.00316 µM, first compound 0.000316 µM): 99% | viability, T/C (second compound 0.00316 µM, first compound 0.001 µM): 106% | viability, T/C (second compound 0.00316 µM, first compound 0.00316 µM): 118% | viability, T/C (second compound 0.00316 µM, first compound 0.01 µM): 92.3% | viability, T/C (second compound 0.00316 µM, first compound 0.0316 µM): 103% | viability, T/C (second compound 0.00316 µM, first compound 0.1 µM): 101% | viability, T/C (second compound 0.01 µM, first compound 0.000316 µM): 92.4% | viability, T/C (second compound 0.01 µM, first compound 0.001 µM): 87.1% | viability, T/C (second compound 0.01 µM, first compound 0.00316 µM): 90.3% | viability, T/C (second compound 0.01 µM, first compound 0.01 µM): 97.5% | viability, T/C (second compound 0.01 µM, first compound 0.0316 µM): 95.7% | viability, T/C (second compound 0.01 µM, first compound 0.1 µM): 104% | viability, T/C (second compound 0.0316 µM, first compound 0.000316 µM): 82.9% | viability, T/C (second compound 0.0316 µM, first compound 0.001 µM): 90.3% | viability, T/C (second compound 0.0316 µM, first compound 0.00316 µM): 89.9% | viability, T/C (second compound 0.0316 µM, first compound 0.01 µM): 85.2% | viability, T/C [1]: 89% | viability, T/C [2]: 74.8% | viability, T/C (second compound 0.1 µM, first compound 0.000316 µM): 43.1% | viability, T/C (second compound 0.1 µM, first compound 0.001 µM): 48.6% | viability, T/C (second compound 0.1 µM, first compound 0.00316 µM): 48.7% | viability, T/C (second compound 0.1 µM, first compound 0.01 µM): 37.6% | viability, T/C [3]: 37.9% | viability, T/C [4]: 32.5% | viability, T/C (second compound 0.316 µM, first compound 0.000316 µM): 23% | viability, T/C (second compound 0.316 µM, first compound 0.001 µM): 20.6% | viability, T/C (second compound 0.316 µM, first compound 0.00316 µM): 20% | viability, T/C (second compound 0.316 µM, first compound 0.01 µM): 19.2% | viability, T/C [5]: 19.6% | viability, T/C [6]: 17.6% | viability, T/C (second compound 1 µM, first compound 0.000316 µM): 16% | viability, T/C (second compound 1 µM, first compound 0.001 µM): 17.7% | viability, T/C (second compound 1 µM, first compound 0.00316 µM): 16.7% | viability, T/C (second compound 1 µM, first compound 0.01 µM): 16.2% | viability, T/C [7]: 13.6% | viability, T/C [8]: 14.1%

C[C@@H](NC(=O)c1ncnc(N)c1Cl)c1ncc(C(=O)Nc2cc(C(F)(F)F)c(Cl)cn2)s1 + CC(Nc1ncnc2nc[nH]c12)c1cc2cccc(Cl)c2c(=O)n1-c1ccccc1
IC50 (second compound 0.0316 µM): > 10 µM | IC50 (second compound 0.1 µM): > 10 µM | IC50 (second compound 0.316 µM): > 10 µM | IC50 (second compound 1 µM): > 10 µM | IC50 (second compound 3.16 µM): > 10 µM | IC50 (second compound 10 µM): > 10 µM | viability, T/C [1]: 98% | viability, T/C [2]: 87.3% | viability, T/C [9]: 95.9% | viability, T/C [10]: 101% | viability, T/C [11]: 104% | viability, T/C [12]: 105% | viability, T/C [3]: 106% | viability, T/C [4]: 109% | viability, T/C [13]: 97.7% | viability, T/C [14]: 96.5% | viability, T/C [15]: 94.7% | viability, T/C [16]: 103% | viability, T/C [5]: 95.7% | viability, T/C [6]: 115% | viability, T/C [17]: 108% | viability, T/C [18]: 103% | viability, T/C [19]: 98.7% | viability, T/C [20]: 96.6% | viability, T/C [7]: 101% | viability, T/C [8]: 101% | viability, T/C [21]: 103% | viability, T/C [22]: 96.2% | viability, T/C [23]: 102% | viability, T/C [24]: 86.5% | viability, T/C [25]: 104% | viability, T/C [26]: 105% | viability, T/C [27]: 92.7% | viability, T/C [28]: 106% | viability, T/C [29]: 96.4% | viability, T/C [30]: 96% | viability, T/C [31]: 101% | viability, T/C [32]: 99.7% | viability, T/C [33]: 92.5% | viability, T/C [34]: 108% | viability, T/C [35]: 98.8% | viability, T/C [36]: 93.3%

Cn1ncc(Cl)c1-c1cc(C(=O)NC(CN)Cc2cccc(F)c2)sc1Cl (stereo not drawn) + Cc1nc(NC(=O)N2CCCC2C(N)=O)sc1-c1ccnc(C(C)(C)C(F)(F)F)c1
IC50 (second compound 0.0316 µM): 4.06 µM | IC50 (second compound 0.1 µM): 2.93 µM | IC50 (second compound 0.316 µM): 1.95 µM | IC50 (second compound 1 µM): 1.43 µM | IC50 (second compound 3.16 µM): 0.605 µM | IC50 (second compound 10 µM): 0.131 µM | viability, T/C [1]: 86.1% | viability, T/C [2]: 106% | viability, T/C [9]: 96.3% | viability, T/C [10]: 83% | viability, T/C [11]: 54.6% | viability, T/C [12]: 35.1% | viability, T/C [3]: 110% | viability, T/C [4]: 97.2% | viability, T/C [13]: 93.5% | viability, T/C [14]: 60.1% | viability, T/C [15]: 53.7% | viability, T/C [16]: 34.1% | viability, T/C [5]: 114% | viability, T/C [6]: 119% | viability, T/C [17]: 94% | viability, T/C [18]: 61.8% | viability, T/C [19]: 44.6% | viability, T/C [20]: 29.7% | viability, T/C [7]: 109% | viability, T/C [8]: 108% | viability, T/C [21]: 82.4% | viability, T/C [22]: 54% | viability, T/C [23]: 39.8% | viability, T/C [24]: 21.1% | viability, T/C [25]: 107% | viability, T/C [26]: 84% | viability, T/C [27]: 53.2% | viability, T/C [28]: 45% | viability, T/C [29]: 32.7% | viability, T/C [30]: 16.4% | viability, T/C [31]: 60.6% | viability, T/C [32]: 52.2% | viability, T/C [33]: 40% | viability, T/C [34]: 31.9% | viability, T/C [35]: 28.4% | viability, T/C [36]: 4.34%

CC(C)NCC(C(=O)N1CCN(c2ncnc3c2C(C)CC3O)CC1)c1ccc(Cl)cc1 (stereo not drawn) + CC(Nc1ncnc2nc[nH]c12)c1cc2cccc(Cl)c2c(=O)n1-c1ccccc1
IC50 (second compound 0.0316 µM): 4.58 µM | IC50 (second compound 0.1 µM): 6.84 µM | IC50 (second compound 0.316 µM): 6.66 µM | IC50 (second compound 1 µM): 8.31 µM | IC50 (second compound 3.16 µM): 2.97 µM | IC50 (second compound 10 µM): 2.06 µM | viability, T/C [1]: 112% | viability, T/C [2]: 100% | viability, T/C [9]: 104% | viability, T/C [10]: 78.9% | viability, T/C [11]: 56.3% | viability, T/C [12]: 38.4% | viability, T/C [3]: 119% | viability, T/C [4]: 92.3% | viability, T/C [13]: 86% | viability, T/C [14]: 88.6% | viability, T/C [15]: 62.6% | viability, T/C [16]: 40.5% | viability, T/C [5]: 97.2% | viability, T/C [6]: 93.2% | viability, T/C [17]: 94.6% | viability, T/C [18]: 87.6% | viability, T/C [19]: 63.5% | viability, T/C [20]: 42.7% | viability, T/C [7]: 114% | viability, T/C [8]: 103% | viability, T/C [21]: 85.3% | viability, T/C [22]: 86% | viability, T/C [23]: 58.6% | viability, T/C [24]: 48.1% | viability, T/C [25]: 98.3% | viability, T/C [26]: 91.8% | viability, T/C [27]: 84.2% | viability, T/C [28]: 79.2% | viability, T/C [29]: 46.5% | viability, T/C [30]: 32.4% | viability, T/C [31]: 90.7% | viability, T/C [32]: 88% | viability, T/C [33]: 82.8% | viability, T/C [34]: 70.8% | viability, T/C [35]: 37.5% | viability, T/C [36]: 28.2%
